Results reported in patent US20150065494A1, “AMINOSTYRYLBENZOFURAN DERIVATIVES AS INHIBITORS AGAINST BETA-AMYLOID FIBRIL FORMATION, AND PHARMACEUTICAL COMPOSITION COMPRISING SAME” (KOREA INSTITUTE OF SCIENCE AND TECHNOLOGY, priority 2012, published 2015).
Counter-ions that a name gives are not always drawn.

Tests used:
[1] = biological target: hERG potassium ion channel (Homo sapiens, UniProt Q12809); assay: Inhibitory effect of hERG potassium ion channel (whole-cell patch clamp, HEK-hERG cell line); format: cell-based
Protocol: A HEK-hERG cell line (IonGate Biosciences, Frankfrut, Germany) which stably expresses hERG was cultured in a DMEM (Dulbecco's modified Eagle's Medium, Sigma Co., St. Louis, Mo., USA) supplemented with 10% fetal bovine serum (FBS, Cambrex, Walkesville, Md., USA) and 0.5 mg/mL zeocin (Invitrogen, Carlsbad, Calif., USA). The cell line was subcultured for 5 days after culture when 80% confluency was reached.
A solution within an electrode used to measure the potassium ion current is composed of 115 mM K-aspartate, 20 mM KCl, 10 mM EGTA, 10 mM HEPES, 2.5 mM tris-phosphocreatine, 0.1 mM Na2GTP and 5 mM MgCl2 (pH 7.2, 290 mOsm/Kg H2O). A solution for an extracellular perfusate is composed of 135 mM NaCl, 5 mM KCl, 1 mM MgCl2, 2 mM CaCl2, 10 mM glucose and 10 mM HEPES (pH 7.2, 300 mOsm/Kg H2O). […]
Potassium ion current was measured by using EPC10 (Instrutech Co., NY, USA) patch clamp amplifier in accordance with the conventional whole-cell patch clamp method. […] The membrane capacitance and series resistance of cell membrane were calibrated by 80% or more and potassium ion current was measured at a sampling rate of 2 kHz and a low-pass filter of 2 kHz (−3 dB; 8-pole Bassel filter). […]
The results were analyzed by using Pulse/Pulsefit (v9.0, HEKA Elektronik, Lambrecht, Germany) and Igor macro. […]

[2] = biological target: T1, beta-amyloid 42 (Aβ42) (Homo sapiens, UniProt P05067); assay: Inhibitory effect on the formation of beta-amyloid fibrils in vitro (ThT fluorescence assay); format: biochemical; settings: 10 μM compound; 25 μM Aβ42; ThT fluorescence
T1 construct: Beta-amyloid 42 (Aβ42) was dissolved in dimethylsulfoxide (DMSO) to form a 250 mM Aβ42 stock solution
Protocol: Beta-amyloid 42 (Aβ42) was dissolved in dimethylsulfoxide (DMSO) to form a […] Aβ42 stock solution. In addition, ThT (thioflavin T) was dissolved in distilled water to obtain a concentration of 1 mM and subsequently diluted with 50 mM glycin buffer (pH 8.5) to yield a 5 μM ThT stock solution. 45 μL of PBS (phosphate buffer saline, pH 7.4) was added to each of a 96-well fluorescence microplate (white, F-bottom). 5 μL of the 250 μM Aβ42 stock solution was added to each well. The final concentration of each compound obtained in Examples was in a range of 10 to 0.001 μM by adding 2 μL of a solution, which was prepared by dissolving the subject compounds obtained in Examples in DMSO, to each well. At this time, the final concentration of Aβ42 in each well was 25 μM. The plate was then incubated for 1 hr at room temperature, and 150 μL of the 5 μM ThT stock solution was added to each well.
The fluorescence intensity of each well was determined with the multi-label fluorescence counter (LS-55 Luminescence spectrometer: Perkin Elmer) at an excitation wavelength of 450 nm (excitation slit width: 10 nm) and an emission wavelength of 482 nm (emission slit width: 10 nm), while adjusting counting time to 1 second. The control group was prepared by adding PBS solution, Aβ42 and DMSO, without adding the inventive compound prepared above. A percent inhibition on the formation of beta-amyloid fibrils was calculated in accordance with the following equation, and IC50 was calculated by using GraphPad Prism version 4.03 Program.
% Inhibition=[1−(C−D)/(A−B)]×100
A (control group)=fluorescence intensity in a group treated with PBS solution, Aβ42 and DMSO
B (blank)=fluorescence intensity in a group treated with PBS solution and DMSO
C (experimental group)=fluorescence intensity in a group treated with PBS solution, Aβ42, the inventive compound and DMSO
D (compensation value to the experimental group) =fluorescence intensity in a group treated with PBS solution, the inventive compound and DMSO

hERG potassium ion channel, sequence (Q12809 whole entry): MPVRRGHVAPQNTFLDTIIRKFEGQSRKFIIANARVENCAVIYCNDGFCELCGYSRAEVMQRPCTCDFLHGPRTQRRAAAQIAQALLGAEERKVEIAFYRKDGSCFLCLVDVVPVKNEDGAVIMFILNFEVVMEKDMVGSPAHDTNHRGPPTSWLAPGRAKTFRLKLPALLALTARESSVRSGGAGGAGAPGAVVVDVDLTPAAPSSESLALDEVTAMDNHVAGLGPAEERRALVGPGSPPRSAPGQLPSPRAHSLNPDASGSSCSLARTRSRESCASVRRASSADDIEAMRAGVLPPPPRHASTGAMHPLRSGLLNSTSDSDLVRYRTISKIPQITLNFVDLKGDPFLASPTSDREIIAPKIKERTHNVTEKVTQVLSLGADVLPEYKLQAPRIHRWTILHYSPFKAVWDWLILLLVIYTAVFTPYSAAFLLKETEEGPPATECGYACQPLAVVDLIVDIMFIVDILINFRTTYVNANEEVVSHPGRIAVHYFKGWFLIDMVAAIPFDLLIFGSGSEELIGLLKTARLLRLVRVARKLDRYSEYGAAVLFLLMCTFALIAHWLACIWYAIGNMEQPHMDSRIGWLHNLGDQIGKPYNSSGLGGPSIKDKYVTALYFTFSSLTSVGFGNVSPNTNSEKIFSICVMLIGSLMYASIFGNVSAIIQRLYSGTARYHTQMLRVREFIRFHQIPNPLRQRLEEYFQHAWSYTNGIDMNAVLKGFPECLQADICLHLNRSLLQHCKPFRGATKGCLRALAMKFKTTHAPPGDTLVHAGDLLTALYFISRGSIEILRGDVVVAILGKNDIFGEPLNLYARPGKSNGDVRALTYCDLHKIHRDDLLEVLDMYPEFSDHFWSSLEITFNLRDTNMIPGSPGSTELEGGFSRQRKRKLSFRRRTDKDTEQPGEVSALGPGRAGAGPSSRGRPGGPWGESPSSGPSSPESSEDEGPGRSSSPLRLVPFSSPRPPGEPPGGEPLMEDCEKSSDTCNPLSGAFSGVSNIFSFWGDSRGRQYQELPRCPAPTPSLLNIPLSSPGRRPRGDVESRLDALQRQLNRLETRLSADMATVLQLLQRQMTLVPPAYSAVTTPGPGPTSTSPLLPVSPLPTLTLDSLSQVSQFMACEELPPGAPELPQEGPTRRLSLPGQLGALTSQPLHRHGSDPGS
T1 sequence (P05067 672-713 limits assumed): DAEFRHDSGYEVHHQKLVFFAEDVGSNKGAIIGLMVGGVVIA

SMILES	inhibitory efficacy on hERG potassium ion channel ([1]; result in words)	inhibition at 10 µM [2]	IC50 ([1]; HEK-hERG cells, whole-cell patch clamp, mean ± standard error)
CN(C)CCOc1ccc2cc(/C=C/c3ccc(N(C)C)cc3)oc2c1 [Example 2, (E)-6-(2-dimethylaminoethoxy)-2-(4-dimethylaminostyryl)benzofuran]	insignificant inhibitory efficacy	–	–
CN(C)CCOc1ccc2cc(/C=C/c3ccc(N(C)C)cc3)oc2c1 [Example 22, (E)-6-(2-dimethylaminoethoxy)-2-(4-dimethylaminostyryl)benzofuran hydrochloride]	–	≥ 70%	52.1 ± 3.68 µM
